The source made the active and inactive calls.
Legend:
[1] = HEp-2 cell cytotoxicity, dose response, cytotoxicity control for RSV inhibitor project, HTS (AID 2410); assay type: functional; conditions: human respiratory syncytial virus
[2] = molecular target: FAD-linked sulfhydryl oxidase ALR (Homo sapiens, UniProt P55789); assay: inhibitors of human ALR sulfhydryl oxidase, dose response, biochemical, H2O2 detection, luminescence, cherry-pick (AID 493248)
[3] = inhibitors of intracellular T. cruzi replication, confirmation, NIH3T3 host cells, beta-gal luminescence (AID 2044); assay type: functional, cell-based;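 also: intracellular parasites grown in NIH/3T3 mouse fibroblasts as host cells; luminescent beta-galactosidase reporter signal from transgenic T. cruzi replicating inside host cells; inhibitors lower the luminescence signal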
[4] = cytotoxicity toward NIH3T3 fibroblasts, dose response, counter-screen, cell-based, ATP luminescence, mouse fibroblasts (AID 2010); assay type: functional;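 also: cells exposed to compound for about 90 hours before reading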
Cytochrome P450 2D6 = Cytochrome P450 2D6 (Homo sapiens, UniProt P10635);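 also: CYP2D6 member of a cytochrome P450 panel assay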
Sequence of Cytochrome P450 2D6 (P10635 whole entry): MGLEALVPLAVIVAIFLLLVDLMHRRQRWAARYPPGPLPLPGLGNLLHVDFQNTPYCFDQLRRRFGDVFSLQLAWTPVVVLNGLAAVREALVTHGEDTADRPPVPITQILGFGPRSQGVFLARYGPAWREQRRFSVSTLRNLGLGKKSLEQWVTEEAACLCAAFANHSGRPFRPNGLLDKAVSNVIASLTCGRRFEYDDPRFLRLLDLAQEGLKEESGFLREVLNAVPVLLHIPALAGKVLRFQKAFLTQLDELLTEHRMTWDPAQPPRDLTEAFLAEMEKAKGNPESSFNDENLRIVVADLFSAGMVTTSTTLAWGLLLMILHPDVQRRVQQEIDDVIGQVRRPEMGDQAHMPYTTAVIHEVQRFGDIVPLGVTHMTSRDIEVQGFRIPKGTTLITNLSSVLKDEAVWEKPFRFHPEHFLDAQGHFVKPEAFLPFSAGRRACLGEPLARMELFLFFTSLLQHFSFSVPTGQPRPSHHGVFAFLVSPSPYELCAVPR

[5] = molecular target: T1, Polyadenylate-binding protein 1 (Homo sapiens, UniProt P11940); assay: PABP1 MLLE–PAM2 interaction inhibitors, dose response, miRNA deadenylation inhibitor project, biochemical, fluorescence polarization, Cy5-PAM2 peptide, secondary (AID 602260); assay type: functional; conditions: read-out: IC50_Mean
T1 sequence (P11940 whole entry): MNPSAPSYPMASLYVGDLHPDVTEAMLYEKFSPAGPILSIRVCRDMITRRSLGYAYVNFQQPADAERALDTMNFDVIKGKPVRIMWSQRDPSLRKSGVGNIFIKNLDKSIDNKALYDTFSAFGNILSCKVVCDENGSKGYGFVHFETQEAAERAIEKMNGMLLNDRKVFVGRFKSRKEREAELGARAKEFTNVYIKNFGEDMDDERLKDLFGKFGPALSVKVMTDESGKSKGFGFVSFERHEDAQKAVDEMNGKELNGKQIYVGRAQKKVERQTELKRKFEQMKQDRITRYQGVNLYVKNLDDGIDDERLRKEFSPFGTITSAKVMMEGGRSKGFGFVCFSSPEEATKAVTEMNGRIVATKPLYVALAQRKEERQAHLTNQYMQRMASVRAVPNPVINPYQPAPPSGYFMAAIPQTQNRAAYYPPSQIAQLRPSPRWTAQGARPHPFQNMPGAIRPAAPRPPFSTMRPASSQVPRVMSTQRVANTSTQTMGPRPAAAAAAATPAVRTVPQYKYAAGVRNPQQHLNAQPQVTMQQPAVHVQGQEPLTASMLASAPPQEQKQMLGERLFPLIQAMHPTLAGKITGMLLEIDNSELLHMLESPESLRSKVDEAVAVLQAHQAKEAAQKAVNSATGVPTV

[6] = molecular target: T1, Polyadenylate-binding protein 1; assay: PABP1 MLLE–PAM2 binding inhibitor potency, dose response, biochemical, fluorescence polarization, FITC-PAM2 peptide (AID 602259); assay type: functional; conditions: read-out: IC50_Mean
cells [7] = assay type: functional, cell-based
cells [8] = assay type: functional, cell-based; remark: listed apart in the source
[9] = growth suppression of PTEN-null colon cells, dose response, cell-based, HCT116 PTEN knockout (AID 1047); assay type: functional;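 also: HCT116 colon tumor cells with PTEN knocked out; cells exposed to compound for 60 hours before readout; potency for loss of cell viability measured by luminescence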
[10] = growth suppression of beta-catenin-knockout colon cells, dose response, cell-based, HCT116, human colon tumor (AID 1045); assay type: functional;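 also: HCT116 colon tumor cells with beta catenin knocked out; cells exposed to compound for 60 hours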
[11] = molecular target: T2, Heat shock factor protein 1 (Mus musculus, UniProt P38532); assay: inhibition of MG132-induced HSE-luciferase signal, confirmation, cell-based, NIH3T3, luminescence, dose retest (AID 2382); assay type: functional;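 also: NIH3T3 fibroblasts with HSF1-driven luciferase reporter stressed by proteasome inhibitor MG132; luminescence from HSF1-driven luciferase expression after 8 hours of MG132 stress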
T2 sequence (P38532 whole entry): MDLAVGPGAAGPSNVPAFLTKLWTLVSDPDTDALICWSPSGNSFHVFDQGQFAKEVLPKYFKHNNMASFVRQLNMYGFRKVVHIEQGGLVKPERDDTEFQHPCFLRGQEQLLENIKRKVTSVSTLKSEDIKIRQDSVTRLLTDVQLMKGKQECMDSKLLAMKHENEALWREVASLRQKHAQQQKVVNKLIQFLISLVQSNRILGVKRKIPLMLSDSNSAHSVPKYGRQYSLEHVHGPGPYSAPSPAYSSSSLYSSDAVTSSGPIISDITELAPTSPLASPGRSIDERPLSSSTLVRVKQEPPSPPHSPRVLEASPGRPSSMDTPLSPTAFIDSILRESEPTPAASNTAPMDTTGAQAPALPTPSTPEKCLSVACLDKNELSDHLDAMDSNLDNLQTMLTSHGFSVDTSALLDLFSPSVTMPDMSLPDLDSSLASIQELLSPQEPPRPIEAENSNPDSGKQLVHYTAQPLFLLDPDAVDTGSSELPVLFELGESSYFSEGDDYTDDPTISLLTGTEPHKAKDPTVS

[12] = molecular target: Luciferin 4-monooxygenase (Photinus pyralis, UniProt P08659); assay: firefly luciferase enzyme inhibitors, dose response, biochemical, luminescence (AID 1891)
Sequence of Luciferin 4-monooxygenase (P08659 whole entry): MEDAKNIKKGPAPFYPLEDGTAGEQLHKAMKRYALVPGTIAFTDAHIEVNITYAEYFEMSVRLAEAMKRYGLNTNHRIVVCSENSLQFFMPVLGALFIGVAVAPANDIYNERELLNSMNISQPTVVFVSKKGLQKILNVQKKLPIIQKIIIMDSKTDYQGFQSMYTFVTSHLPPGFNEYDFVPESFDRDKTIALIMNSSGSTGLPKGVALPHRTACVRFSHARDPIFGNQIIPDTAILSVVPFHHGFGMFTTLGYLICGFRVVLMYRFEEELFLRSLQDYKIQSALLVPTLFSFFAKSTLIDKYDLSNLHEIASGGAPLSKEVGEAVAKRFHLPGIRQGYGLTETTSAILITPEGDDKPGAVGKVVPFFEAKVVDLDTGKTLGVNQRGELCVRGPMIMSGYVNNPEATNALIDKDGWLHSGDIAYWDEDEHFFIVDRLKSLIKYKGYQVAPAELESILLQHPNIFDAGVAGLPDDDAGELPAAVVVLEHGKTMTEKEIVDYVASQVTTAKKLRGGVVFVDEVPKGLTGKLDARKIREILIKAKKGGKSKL

[13] = Luminescence Cell-Based Dose Confirmation HTS to Identify Inhibitors of Platelet Dense Granule Release. [Related pubchem assays: 1663 (Primary HTS), 1678 (Summary of Project)]; assay type: functional
Cytochrome P450 2C9 = Cytochrome P450 2C9 (Homo sapiens, UniProt P11712)
Sequence of Cytochrome P450 2C9 (P11712 whole entry): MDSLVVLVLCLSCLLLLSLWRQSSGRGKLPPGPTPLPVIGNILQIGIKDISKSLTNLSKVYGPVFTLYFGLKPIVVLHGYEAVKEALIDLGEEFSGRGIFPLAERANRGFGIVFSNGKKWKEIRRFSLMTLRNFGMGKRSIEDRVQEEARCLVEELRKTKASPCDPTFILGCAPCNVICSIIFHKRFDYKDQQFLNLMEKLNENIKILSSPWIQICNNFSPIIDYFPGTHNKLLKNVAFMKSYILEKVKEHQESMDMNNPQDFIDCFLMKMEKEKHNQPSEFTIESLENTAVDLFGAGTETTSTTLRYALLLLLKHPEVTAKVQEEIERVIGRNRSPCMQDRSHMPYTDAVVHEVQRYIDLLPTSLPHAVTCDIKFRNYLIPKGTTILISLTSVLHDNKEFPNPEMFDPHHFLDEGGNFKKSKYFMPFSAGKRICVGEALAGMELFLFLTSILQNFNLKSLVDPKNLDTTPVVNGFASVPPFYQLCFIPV

cells [14] = assay type: functional
Cytochrome P450 2C19 = Cytochrome P450 2C19 (Homo sapiens, UniProt P33261); assay: Cytochrome panel assay with activity outcomes. Panel member name: p450-cyp2c19 Compounds with AC50 equal or less than 10 uM are considered active; assay type: functional; conditions: read-out: AC50
Sequence of Cytochrome P450 2C19 (P33261 whole entry): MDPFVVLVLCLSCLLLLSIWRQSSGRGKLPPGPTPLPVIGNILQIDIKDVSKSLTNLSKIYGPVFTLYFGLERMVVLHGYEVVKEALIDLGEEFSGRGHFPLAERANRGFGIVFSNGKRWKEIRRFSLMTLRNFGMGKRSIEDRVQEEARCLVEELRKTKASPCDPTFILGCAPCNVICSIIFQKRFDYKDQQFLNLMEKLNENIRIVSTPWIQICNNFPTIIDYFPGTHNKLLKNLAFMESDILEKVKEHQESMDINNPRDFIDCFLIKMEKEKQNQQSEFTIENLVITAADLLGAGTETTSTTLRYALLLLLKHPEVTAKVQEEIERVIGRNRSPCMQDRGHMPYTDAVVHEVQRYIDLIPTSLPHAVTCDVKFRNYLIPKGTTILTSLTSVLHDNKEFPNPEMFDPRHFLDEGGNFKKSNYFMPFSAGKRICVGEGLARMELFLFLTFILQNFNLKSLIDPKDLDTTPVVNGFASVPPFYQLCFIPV

Sequence of FAD-linked sulfhydryl oxidase ALR (P55789 whole entry): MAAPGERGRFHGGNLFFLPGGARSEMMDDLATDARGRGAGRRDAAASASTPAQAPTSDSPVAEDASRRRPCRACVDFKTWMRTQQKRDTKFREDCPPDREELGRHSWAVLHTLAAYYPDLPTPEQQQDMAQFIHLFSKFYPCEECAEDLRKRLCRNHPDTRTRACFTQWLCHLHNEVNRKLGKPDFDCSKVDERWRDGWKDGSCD

In the case of `CCCOc1ccc(NC(=O)CC2C(=O)N(CC)C(=S)N2CCCN2CCN(Cc3ccccc3)CC2)cc1` (stereo not given), the CC50 [1] is reported as 14.3 µM (active).
In the case of `Cc1ccc(NC(=O)CN(c2ccc3c(c2)OCO3)S(=O)(=O)c2c(C)n[nH]c2C)cc1`, the AC50 [2] is reported as > 100 µM (inactive).
With `O=C(Nc1cccc(NC(=O)c2ccc(-c3cccc(Br)c3)o2)c1)c1ccco1` the CC50 [1] was 16 µM (active), the EC50 [3] was 3.69 µM (active) and the EC50 [4] was 14.9 µM (active). The AC50 (Cytochrome P450 2D6) was 17.8 µM (inconclusive).
In the case of `N#Cc1c2n(c(=S)n(-c3ccccc3[N+](=O)[O-])c1=O)CCCCC2`, the IC50 [5] is reported as > 66 µM (inactive) and the IC50 [6] is reported as > 66 µM (inactive).
In the case of `O=C(CS(=O)(=O)c1ccccc1)Nc1ccc(N2CCOCC2)cc1`, the EC50 (cells [7]) is reported as > 350 µM (not active) and the EC50 (cells [8]) is reported as > 350 µM (not active).
In the case of `CCOC(=O)c1cc(CC)sc1NC(=O)c1ccc([N+](=O)[O-])c(N2CCOCC2)c1`, the EC50 [9] is reported as 39.9 µM (active) and the EC50 [10] is reported as 34.2 µM (active).
For `COc1cccc(Nc2ccc(C(=O)O)cc2N)c1`, the EC50 [11] was > 195 µM (not active) and the AC50 [2] was 1.17 µM (active).
In the case of `CC(C)N(CC(N)=O)c1ncnc2sc(-c3ccccc3)cc12`, the CC50 [1] is reported as 25.9 µM (active).
With `CC(=O)c1c(C)nc2nonc2c1N` the EC50 [12] was > 112 µM (not active) and the EC50 [13] was 26.6 µM (active).
In the case of `CCCCOC(=O)c1ccc(NC(=O)C(=O)NCc2cccnc2)cc1`, the EC50 (cells [7]) is reported as > 350 µM (not active) and the EC50 (cells [8]) is reported as > 350 µM (not active).
For `NCCCCCc1nnc(SCc2ccc(Cl)cc2Cl)o1`, the AC50 [2] was 2.63 µM (active) and the AC50 (Cytochrome P450 2C9) was 14.1 µM (inconclusive).
With `Cc1cc(C)c2cc(CN(Cc3ccco3)C(=O)NCc3ccccc3)c(O)nc2c1` the EC50 [12] was > 112 µM (not active) and the EC50 [13] was > 112 µM (not active).
With `CCc1c(C(C)S(=O)(=O)c2ccccc2)nc(O)n1CC` (stereo not given) the IC50 [5] was > 66 µM (inactive) and the IC50 [6] was > 66 µM (inactive).
With `O=C1NCCCc2c1oc1cc(Br)c(O)c(Br)c21` the AC50 [2] was 3.5 µM (active).
For `COc1cc2ncnc(NCc3cccs3)c2cc1OC`, the EC50 (cells [7]) was > 350 µM (not active) and the EC50 (cells [8]) was > 350 µM (not active).
With `CN1CCN(C(=S)c2ccc(N(C)C)cc2)CC1` the AC50 [2] was 1.45 µM (active).
For `O=C(c1ccc(S(=O)(=O)c2cccc(Cl)c2)c([N+](=O)[O-])c1)N1CCN(Cc2ccccc2)CC1`, the CC50 [1] was 6.34 µM (active).
With `FC(F)c1nnc2ccc(Cl)nn12` the IC50 (cells [14]) was 7.13 µM (active).
In the case of `COC(=O)[C@H](CC(C)C)NC(=O)NCCC1=CCCCC1`, the IC50 (cells [14]) is reported as 21.6 µM (active).
With `CCN1C(=O)[C@@H]2[C@@H](c3ccc(SC4CCCCC4)cc3)N3CCC[C@@]3(C(=O)OC)[C@@H]2C1=O` the IC50 [5] was > 66 µM (inactive) and the IC50 [6] was > 66 µM (inactive).
With `COCc1c(C(=O)N/N=C(\C)c2ccc(Cl)s2)nnn1-c1nonc1N` the EC50 (cells [7]) was > 350 µM (not active) and the EC50 (cells [8]) was > 350 µM (not active).
In the case of `CN(C)c1ccc(/C=N/NC(=O)c2ccco2)cc1`, the AC50 [2] is reported as 6.78 µM (active).
For `Cc1cccn2c(=O)c(/C=N/Cc3ccco3)c(Nc3ccc(SC(F)F)cc3)nc12`, the EC50 [9] was 10.7 µM (active), the EC50 [10] was 14 µM (active) and the AC50 (Cytochrome P450 2C19) was 4.47 µM (inconclusive).
